In PMC6856805, “Environmental Risk Assessment for the Active Pharmaceutical Ingredient Mycophenolic Acid in European Surface Waters” (Environmental Toxicology and Chemistry, 2019):
Several values for one entry are separate records, joined by “and”; a condition that tells them apart may be missing. Equal values may be shown once. Read-outs that look alike come from different tables or passages of the source.

Key:
[1] = Dissociation constant (pKa) by titration; format: physicochemical; conditions: 25 ± 2 °C
Excerpt: (§1) Syntex derived many basic physicochemical properties for both MPM and MPA in the early 1990s. The results for MPA are mostly given in the present study.

[2] = n-octanol/water distribution coefficient (log DOW), shake-flask method; format: physicochemical
Excerpt: as §1

[3] = OECD test guideline 106 batch equilibrium adsorption test; format: physicochemical
Description: An OECD 106 phase I batch equilibrium adsorption test was performed by Toxi-Coop, Balatonfűred, Hungary (Halász-Laky 2018) with MPA and three soils plus two activated sludges of different characteristics (pHKCl, organic carbon (OC) content, plus for the soils sand fraction, silt fraction, clay fraction and USDA soil texture).
In short, the substrates were put in contact with MPA in aqueous 0.01 M CaCl2 solutions; the mixture was agitated for an appropriate time to reach equilibrium, in the case of MPA for 10 hours. The soil/sludge suspensions were then separated and the aqueous phase diluted twofold with the mobile HPLC phase, analysed by HPLC (Supplemental Information) and the amount of test item in the water phase calculated. The soil or sludge phases were extracted twice with acetonitrile/water/1 mg/mL NaOH solution (75/75/2, v/v/v); the extracts were diluted twofold with the mobile phase and then analysed by HPLC. Based on the analytics the mass balance could be established. The adsorption constant Kd was calculated as MPA concentration adsorbed to substrate divided by MPA concentration in aqueous CaCl2 solution; subsequently the Kd was normalised to the OC content to result in the KOC for the different substrates (Halász-Laky 2018).

[4] = Antibiotic resistance risk quotient (PEC or MEC / PNECABR)
Description: Antibiotic resistance risk is assessed through comparing PECs or MECs with a PNEC for formation or maintenance of antibiotic resistance (PNECABR). There is no universally accepted or regulatory algorithm for deriving a reliable PNECABR for bacteria, so for the time being this is approximated by applying assessment factors to bacterial minimal inhibitory concentrations (MICs). […] To be fully consistent with Bengtsson‐Palme and Larsson's (2016) approach to PNECABR derivation, the authors were contacted for help; they (J. Bengtsson‐Palme, Department of Infectious Diseases, Institute of Biomedicine, The Sahlgrenska Academy, University of Gothenberg, Gothenberg, Sweden, personal communication) state that “we only use species with 10 or more MIC observations, to avoid drawing conclusions from insufficient data […] . The only species with >10 observations in the Noto et al. (1969) paper is S[taphylococcus] aureus. In addition, when the MIC1% are selected, only one MIC [J.O.Straub's italics] value is selected per species (the lowest). Finally, the uncertainty factor for low sampling numbers is calculated as: (observed lowest MIC) × (number of tested species) ÷ 41.” Both these provisional PNECABR values were derived from the MPA MICs; the lower was selected and compared with the PECs and MECs.
This provisional PNECABR of 64 µg MPA/L can now be compared with the PECs for STPs and surface water and with the highest MECs available. […] For surface waters, all PECs including the highest, the Guadalquivir River low‐flow 99th %ile ePiE PEC, were below the PNECABR, and thus all risk quotients were ≤0.194, all refined PEC‐per‐country risk quotients were ≤0.0083, and all mean‐ and low‐flow median ePiE PEC risk quotients were ≤0.00033; finally, the highest MEC risk quotient was 0.0103. Both models and measurements imply that throughout Europe, even in the worst‐case scenario of a southern Mediterranean catchment with extremely low river flow in summer, no significant antibiotic resistance risk emerges for MPA.

Cyprinus carpio = test system: Cyprinus carpio; design: method as in FASS 2018; conditions: OECD 203; ref FASS 2018; cited from earlier work
Artemia salina = test system: Artemia salina; design: method as in earlier work; conditions: non‐GLP; ref Ďuračková et al. 1977; cited from earlier work
[5] = design: method as in Wishart et al. 2018; Royal Pharmaceutical Society 2018; conditions: ref Wishart et al. 2018; Royal Pharmaceutical Society 2018; cited from earlier work
[6] = test system: Rhaphidocelis (Pseudokirchneriella) subcapitata; conditions: cited from earlier work
[7] = Derivation of predicted no-effect concentrations (PNEC) for STPs and surface water
Description: The surface (fresh) water PNECSW was derived in 2 ways, from the lowest chronic NOEC on the one hand and from the lowest chronic 10% effect concentration (EC10) on the other, from (sub)chronic tests with fish, daphnids, green algae, and cyanobacteria (for the latter 2 the NOErC/ErC10 for growth rate [r] was used), using an assessment factor of 10 (Committee for Medicinal Products for Human Use 2015).

## COc1c(C)c2c(c(O)c1CC=C(C)CCC(=O)O)C(=O)OC2 [MPA, 6‐(1,3‐dihydro‐4‐hydroxy‐6‐methoxy‐7‐methyl‐3‐oxo‐5‐isobenzofuranyl)‐4‐methyl‐4‐hexenoic acid]
[1]
  pK a, carboxylic acid: 4.58
  pK a, phenolic: 8.045
[2]; pH 5, pH 5, read-out: Log D OW
  logD: 2.28
[2]; pH 5, pH 5 to 9, read-out: log D OW values
  logD: ≤ 2.28
[2]; pH 7, pH 7, read-out: Log D OW
  logD: 0.48
[2]; pH 9, pH 9, read-out: Log D OW
  logD: ≤ -1.54
[3]; in one of the activated sludges
  highest K OC: 37 L/kg
[3]; two activated sludges
  activated sludge K d: 9.3 L/kg and 13 L/kg
[4]
  antibiotic resistance risk quotient, highest MEC: 0.0103
  antibiotic resistance risk quotients, all mean‐ and low‐flow median ePiE PEC: ≤ 0.00033
  antibiotic resistance risk quotients, all refined PEC‐per‐country: ≤ 0.0083
[4]; highest STP effluent MEC 4.19 µg/L
  antibiotic resistance risk quotient, STPs: 0.065
[4]; highest refined PECSTP 8.83 µg MPA/L
  antibiotic resistance risk quotient, STPs: 0.138
[4]; including Guadalquivir low‐flow 99th %ile ePiE PEC
  antibiotic resistance risk quotients, surface waters, all PECs: ≤ 0.194
Cyprinus carpio
  acute fish 50% lethal concentration (LC50): > 100 mg/L
Artemia salina
  16‐h LC50: 98.4 mg MPA/L
[5]
  fraction phase‐I‐metabolized to 6‐O‐desmethyl‐MPA: less than 1%
  terminal half‐life: approximately 18 h
[6]; GMMC, 24 h dark + 72 h light, ref European Chemicals Agency 2018
  ErC50: 68 µg/L
[6]
  ErC10: 12 µg/L
  NOErC: 9 µg/L
[7]; fish EC10, assessment factor of 10
  PNECEC10 (aquatic): 0.58 µg MPA/L and 0.580 µg MPA/L
[7]; fish NOEC, assessment factor of 10
  PNECNOEC (aquatic): 0.132 µg MPA/L
